Patent publication EP4467141A1, “PYRAZOLO-QUINOLINES AS SELECTIVE INHIBITORS OF GENOTOXIC STRESS-INDUCED IKK/NF- KB PATHWAYS FOR CANCER THERAPY” (Max-Delbrück-Centrum für Molekulare Medizin in der …, priority 2023, dated 2024)
Where two headings read alike, the source gives them in different places.

Columns and labels:
Assay in all cases: Kinase panel study
Type in all cases: biochemical
Settings in all cases: for inhibition at 1 µM: 1000nM
CSF1R (FMS) = target: T1, CSF1R (FMS) (Homo sapiens, UniProt P07333)
T1 construct: purchased Thermo Fisher Scientific
Method in brief: (§1)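 Outsourced panel screen. Format: ZLyte or Adapta, run per the manufacturer's procedures. Read-out: inhibition (%) at a single dose of 10 µM or 1 µM; IC50s also generated.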

DYRK1A = target: T2, DYRK1A (Homo sapiens, UniProt Q13627)
T2 construct: purchased Thermo Fisher Scientific
Method in brief: as §1

EGFR (ErbB1) = target: T3, EGFR (ErbB1) (Homo sapiens, UniProt P00533)
T3 construct: purchased Thermo Fisher Scientific
Method in brief: as §1

FRAP1 (mTOR) = target: T4, FRAP1 (mTOR) (Homo sapiens, UniProt P42345)
T4 construct: purchased Thermo Fisher Scientific
Method in brief: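 In vitro, kinase panel; ZLyte or Adapta SOP; single-concentration testing (1 or 10 µM); output = % inhibition, plus IC50 in panel.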

[1] = target: T5, PIK3CB/PIK3R2 (p11 0 beta/p85 beta) (Homo sapiens, UniProt P42338)
T5 construct: purchased Thermo Fisher Scientific
Method in brief: as §1

[2] = target: T6, PIK3CD/PIK3R1 (p11 0 delta/p85 alpha) (Homo sapiens, UniProt O00329)
T6 construct: purchased Thermo Fisher Scientific
Method in brief: as §1

PRKCN (PKD3) = target: T7, PRKCN (PKD3) (Homo sapiens, UniProt O94806)
T7 construct: purchased Thermo Fisher Scientific
T7 sequence (O94806 1-890): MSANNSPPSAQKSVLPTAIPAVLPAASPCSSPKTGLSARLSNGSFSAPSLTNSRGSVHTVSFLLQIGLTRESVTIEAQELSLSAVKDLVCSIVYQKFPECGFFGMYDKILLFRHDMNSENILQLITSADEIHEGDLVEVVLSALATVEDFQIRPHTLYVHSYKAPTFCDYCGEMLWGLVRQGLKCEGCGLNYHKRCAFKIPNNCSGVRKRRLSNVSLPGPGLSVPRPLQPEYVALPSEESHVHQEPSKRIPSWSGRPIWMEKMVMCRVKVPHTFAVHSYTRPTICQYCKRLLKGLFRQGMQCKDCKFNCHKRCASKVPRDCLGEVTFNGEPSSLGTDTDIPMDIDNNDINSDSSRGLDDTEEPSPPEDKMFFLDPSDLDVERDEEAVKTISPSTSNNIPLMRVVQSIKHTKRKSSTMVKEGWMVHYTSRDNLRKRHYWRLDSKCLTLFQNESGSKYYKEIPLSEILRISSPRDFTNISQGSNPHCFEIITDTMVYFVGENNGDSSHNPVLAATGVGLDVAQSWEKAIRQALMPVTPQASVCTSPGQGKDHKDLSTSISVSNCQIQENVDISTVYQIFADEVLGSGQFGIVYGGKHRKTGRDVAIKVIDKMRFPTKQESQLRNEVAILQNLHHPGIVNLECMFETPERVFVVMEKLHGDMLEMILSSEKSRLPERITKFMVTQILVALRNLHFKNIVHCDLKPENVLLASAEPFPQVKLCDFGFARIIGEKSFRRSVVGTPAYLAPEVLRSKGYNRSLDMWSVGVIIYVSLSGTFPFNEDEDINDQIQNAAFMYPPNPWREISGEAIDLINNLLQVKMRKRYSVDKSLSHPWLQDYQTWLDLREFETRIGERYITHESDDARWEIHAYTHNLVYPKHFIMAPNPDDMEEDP
Method in brief: as §1

[3] = read-out: Percentage of inhibition
[4] = 10000nM, read-out: Percentage of inhibition
[5] = CSF1R (FMS), compound at 10µM, read-out: % of Inhibition
[6] = DYRK1A, compound at 10µM, read-out: % of Inhibition
[7] = EGFR (ErbB1), compound at 10µM, read-out: % of Inhibition
[8] = FRAP1 (mTOR), compound at 10µM, read-out: % of Inhibition
[9] = PIK3CB/PIK3R2, compound at 10µM, read-out: % of Inhibition
[10] = PIK3CD/PIK3R1, compound at 10µM, read-out: % of Inhibition
[11] = PRKCN (PKD3), compound at 10µM, read-out: % of Inhibition

T6 sequence (O00329 whole entry): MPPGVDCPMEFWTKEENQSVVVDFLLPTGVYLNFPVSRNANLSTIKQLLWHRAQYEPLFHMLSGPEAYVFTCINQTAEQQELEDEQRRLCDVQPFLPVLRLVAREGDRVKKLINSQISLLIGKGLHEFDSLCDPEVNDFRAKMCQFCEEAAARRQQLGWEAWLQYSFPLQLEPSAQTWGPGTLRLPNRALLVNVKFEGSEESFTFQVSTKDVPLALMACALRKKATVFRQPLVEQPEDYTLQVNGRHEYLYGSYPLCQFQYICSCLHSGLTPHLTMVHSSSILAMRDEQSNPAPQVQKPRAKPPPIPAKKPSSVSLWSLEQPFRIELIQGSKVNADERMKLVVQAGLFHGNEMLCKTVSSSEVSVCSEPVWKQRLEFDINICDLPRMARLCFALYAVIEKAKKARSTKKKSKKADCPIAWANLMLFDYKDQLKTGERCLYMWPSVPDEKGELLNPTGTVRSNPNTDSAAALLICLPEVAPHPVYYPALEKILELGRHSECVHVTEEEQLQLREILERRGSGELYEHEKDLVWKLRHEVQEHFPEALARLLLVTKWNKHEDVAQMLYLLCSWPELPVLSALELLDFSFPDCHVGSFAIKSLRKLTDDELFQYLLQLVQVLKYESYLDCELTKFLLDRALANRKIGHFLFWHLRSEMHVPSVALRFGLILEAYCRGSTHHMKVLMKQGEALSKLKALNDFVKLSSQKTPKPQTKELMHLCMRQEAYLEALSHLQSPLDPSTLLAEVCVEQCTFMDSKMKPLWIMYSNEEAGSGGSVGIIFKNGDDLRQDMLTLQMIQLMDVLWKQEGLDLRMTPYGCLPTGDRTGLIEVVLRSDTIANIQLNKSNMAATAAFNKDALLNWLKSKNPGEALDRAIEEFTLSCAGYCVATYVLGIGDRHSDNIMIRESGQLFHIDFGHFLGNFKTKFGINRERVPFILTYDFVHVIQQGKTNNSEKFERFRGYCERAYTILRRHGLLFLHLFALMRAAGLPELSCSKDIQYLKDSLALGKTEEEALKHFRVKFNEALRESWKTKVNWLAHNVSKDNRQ
T6 sequence (P27986 whole entry partner): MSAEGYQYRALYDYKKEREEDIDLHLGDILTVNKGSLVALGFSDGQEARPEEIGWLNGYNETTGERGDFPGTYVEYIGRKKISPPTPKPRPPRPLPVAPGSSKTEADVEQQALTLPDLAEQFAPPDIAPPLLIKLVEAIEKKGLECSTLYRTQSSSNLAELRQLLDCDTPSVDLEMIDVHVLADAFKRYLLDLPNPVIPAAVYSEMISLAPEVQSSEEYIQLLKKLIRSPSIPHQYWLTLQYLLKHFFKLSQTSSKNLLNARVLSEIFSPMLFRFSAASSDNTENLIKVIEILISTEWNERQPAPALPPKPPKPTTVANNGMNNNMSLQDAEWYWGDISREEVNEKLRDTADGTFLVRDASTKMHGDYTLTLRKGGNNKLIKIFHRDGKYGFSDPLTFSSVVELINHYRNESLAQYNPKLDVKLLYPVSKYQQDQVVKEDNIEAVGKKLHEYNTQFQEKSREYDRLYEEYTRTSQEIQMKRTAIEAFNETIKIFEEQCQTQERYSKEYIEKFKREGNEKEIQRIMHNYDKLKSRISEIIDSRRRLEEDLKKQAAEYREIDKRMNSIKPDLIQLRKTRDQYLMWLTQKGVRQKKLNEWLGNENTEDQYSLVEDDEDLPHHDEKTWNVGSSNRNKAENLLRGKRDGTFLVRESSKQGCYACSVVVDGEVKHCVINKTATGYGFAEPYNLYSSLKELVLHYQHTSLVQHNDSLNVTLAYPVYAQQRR
T1 sequence (P07333 20-972): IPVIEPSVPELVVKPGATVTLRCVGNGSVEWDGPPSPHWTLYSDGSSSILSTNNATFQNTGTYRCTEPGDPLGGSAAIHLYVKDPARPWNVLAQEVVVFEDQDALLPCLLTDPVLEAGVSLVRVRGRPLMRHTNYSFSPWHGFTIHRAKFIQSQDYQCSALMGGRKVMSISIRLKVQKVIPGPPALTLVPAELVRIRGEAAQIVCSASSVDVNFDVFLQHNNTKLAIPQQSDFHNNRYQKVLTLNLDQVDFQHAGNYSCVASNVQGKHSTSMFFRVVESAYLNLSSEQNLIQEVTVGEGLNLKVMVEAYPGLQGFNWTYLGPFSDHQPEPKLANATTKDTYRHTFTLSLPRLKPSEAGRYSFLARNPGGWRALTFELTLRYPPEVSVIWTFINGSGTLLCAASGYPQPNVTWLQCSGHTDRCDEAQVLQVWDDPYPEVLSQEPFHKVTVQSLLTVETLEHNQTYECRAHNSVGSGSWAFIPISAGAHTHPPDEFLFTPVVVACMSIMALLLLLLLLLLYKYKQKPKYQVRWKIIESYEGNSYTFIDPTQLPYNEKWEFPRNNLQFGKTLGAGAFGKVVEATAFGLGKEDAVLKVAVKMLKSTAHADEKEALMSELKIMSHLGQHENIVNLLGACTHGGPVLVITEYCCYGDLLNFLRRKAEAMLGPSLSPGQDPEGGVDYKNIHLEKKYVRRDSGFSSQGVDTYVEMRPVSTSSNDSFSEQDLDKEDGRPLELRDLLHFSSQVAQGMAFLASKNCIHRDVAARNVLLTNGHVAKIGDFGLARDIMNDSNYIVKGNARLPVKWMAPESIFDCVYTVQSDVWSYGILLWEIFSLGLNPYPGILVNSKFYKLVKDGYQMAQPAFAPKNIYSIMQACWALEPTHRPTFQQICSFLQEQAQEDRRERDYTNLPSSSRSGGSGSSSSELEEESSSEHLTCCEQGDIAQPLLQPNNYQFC
T5 sequence (P42338 whole entry): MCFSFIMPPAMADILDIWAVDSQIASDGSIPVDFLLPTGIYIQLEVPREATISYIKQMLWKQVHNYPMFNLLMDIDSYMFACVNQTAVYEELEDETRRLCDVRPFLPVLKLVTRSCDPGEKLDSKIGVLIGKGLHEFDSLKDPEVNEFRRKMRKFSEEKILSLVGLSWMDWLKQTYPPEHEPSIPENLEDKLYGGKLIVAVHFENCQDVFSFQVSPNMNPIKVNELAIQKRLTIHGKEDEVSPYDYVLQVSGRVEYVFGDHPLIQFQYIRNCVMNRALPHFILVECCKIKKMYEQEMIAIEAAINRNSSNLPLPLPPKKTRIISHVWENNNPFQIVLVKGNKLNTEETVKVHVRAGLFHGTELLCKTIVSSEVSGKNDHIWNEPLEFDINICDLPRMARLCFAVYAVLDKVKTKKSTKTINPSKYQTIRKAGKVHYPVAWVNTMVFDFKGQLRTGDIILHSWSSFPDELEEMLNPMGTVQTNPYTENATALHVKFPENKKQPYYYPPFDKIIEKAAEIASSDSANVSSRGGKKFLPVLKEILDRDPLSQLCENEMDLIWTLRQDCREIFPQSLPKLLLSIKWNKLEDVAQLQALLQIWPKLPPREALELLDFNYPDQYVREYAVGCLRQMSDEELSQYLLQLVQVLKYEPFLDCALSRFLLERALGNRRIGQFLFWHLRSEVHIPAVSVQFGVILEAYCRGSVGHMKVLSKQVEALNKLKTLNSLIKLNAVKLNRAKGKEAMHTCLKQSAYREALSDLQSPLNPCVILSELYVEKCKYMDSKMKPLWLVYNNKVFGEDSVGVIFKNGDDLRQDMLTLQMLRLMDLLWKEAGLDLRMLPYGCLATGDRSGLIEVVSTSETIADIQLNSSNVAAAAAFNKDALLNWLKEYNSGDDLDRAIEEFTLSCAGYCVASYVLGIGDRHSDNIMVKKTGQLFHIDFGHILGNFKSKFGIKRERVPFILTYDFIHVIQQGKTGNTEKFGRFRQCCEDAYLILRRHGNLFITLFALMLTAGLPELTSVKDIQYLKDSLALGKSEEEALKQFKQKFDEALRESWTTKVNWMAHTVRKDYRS
T5 sequence (O00459 whole entry partner): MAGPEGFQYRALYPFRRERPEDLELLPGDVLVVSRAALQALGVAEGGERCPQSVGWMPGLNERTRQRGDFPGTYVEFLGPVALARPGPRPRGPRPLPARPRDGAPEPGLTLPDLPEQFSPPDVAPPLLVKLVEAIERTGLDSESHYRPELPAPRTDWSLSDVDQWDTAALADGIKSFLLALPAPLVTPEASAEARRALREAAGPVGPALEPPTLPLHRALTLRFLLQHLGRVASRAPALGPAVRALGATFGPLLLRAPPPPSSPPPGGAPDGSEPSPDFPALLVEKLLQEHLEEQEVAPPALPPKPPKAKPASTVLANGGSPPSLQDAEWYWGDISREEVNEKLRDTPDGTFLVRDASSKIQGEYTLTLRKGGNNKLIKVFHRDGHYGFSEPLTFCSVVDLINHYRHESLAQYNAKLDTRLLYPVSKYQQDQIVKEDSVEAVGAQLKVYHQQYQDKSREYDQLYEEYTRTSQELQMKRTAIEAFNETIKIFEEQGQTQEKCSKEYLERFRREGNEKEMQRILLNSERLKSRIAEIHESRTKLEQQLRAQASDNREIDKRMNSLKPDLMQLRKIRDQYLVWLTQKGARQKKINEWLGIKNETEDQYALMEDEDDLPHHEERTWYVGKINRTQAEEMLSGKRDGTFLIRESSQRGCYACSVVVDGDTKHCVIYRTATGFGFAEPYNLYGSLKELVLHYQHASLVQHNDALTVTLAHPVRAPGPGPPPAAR

| inhibition at 10 µM (CSF1R (FMS); [5]) [%] | inhibition at 10 µM (DYRK1A; [6]) [%] | inhibition at 10 µM (EGFR (ErbB1); [7]) [%] | inhibition at 10 µM (FRAP1 (mTOR); [8]) [%] | inhibition at 10 µM [1, 9] [%] | inhibition at 10 µM [2, 10] [%] | inhibition at 10 µM (PRKCN (PKD3); [11]) [%] | Structure (SMILES) | also measured |
| --- | --- | --- | --- | --- | --- | --- | --- | --- |
| – | – | – | – | – | – | – | COc1ccc2c(c1OC)c(=O)n1c3ccc(O)cc3c3ccnc2c31 [MW01, 5-Hydroxy-10,11-dimethoxy-9H-benzo[c]indolo[3,2,1-ij][1,5]naphthyridin-9-one] | inhibition at 1 µM (CSF1R (FMS); [3]): 36%; inhibition at 10 µM (CSF1R (FMS); [4]): 51%; inhibition at 1 µM (DYRK1A; [3]): 80%; inhibition at 10 µM (DYRK1A; [4]): 90%; inhibition at 1 µM (EGFR (ErbB1); [3]): 17%; inhibition at 10 µM (EGFR (ErbB1); [4]): 0%; inhibition at 1 µM (FRAP1 (mTOR); [3]): 31%; inhibition at 10 µM (FRAP1 (mTOR); [4]): 80%; IC50 (FRAP1 (mTOR); in vitro kinase panel, sub-2000 nM criterion): ≥ 2000 nM; inhibition at 1 µM [1, 3]: 24%; inhibition at 10 µM [1, 4]: 66%; inhibition at 1 µM [2, 3]: 79%; inhibition at 10 µM [2, 4]: 89%; inhibition at 1 µM (PRKCN (PKD3); [3]): 34%; inhibition at 10 µM (PRKCN (PKD3); [4]): 57% |
| – | – | – | – | – | – | – | COc1ccc2cc3c(N)nn(C(=O)c4cccc(N(C)C)c4)c3nc2c1 [MW05, (3-Amino-7-methoxypyrazolo[3,4-b]quinolin-1-yl)-[3-(dimethylamino)phenyl]methanone] | inhibition at 1 µM (CSF1R (FMS); [3]): 5%; inhibition at 10 µM (CSF1R (FMS); [4]): -6%; inhibition at 1 µM (DYRK1A; [3]): 22%; inhibition at 10 µM (DYRK1A; [4]): 60%; inhibition at 1 µM (EGFR (ErbB1); [3]): 13%; inhibition at 10 µM (EGFR (ErbB1); [4]): 5%; inhibition at 1 µM (FRAP1 (mTOR); [3]): 31%; inhibition at 10 µM (FRAP1 (mTOR); [4]): 81%; inhibition at 1 µM [1, 3]: 15%; inhibition at 10 µM [1, 4]: 64%; inhibition at 1 µM [2, 3]: 40%; inhibition at 10 µM [2, 4]: 77%; inhibition at 1 µM (PRKCN (PKD3); [3]): 17%; inhibition at 10 µM (PRKCN (PKD3); [4]): 15% |
| 33 | 14 | 11 | 12 | 12 | 34 | -8 | COc1ccc2c(c1)c1ccnc3c4nc(OC)ccc4c(=O)n2c13 [MW01-E6, 5,15-dimethoxy-1,11,14-triazapentacyclo[10.7.1,0^2,7.0^8,^20.0^13,^18]icosa-2(7),3,5,8(20),9,11,13(18),14,16-nonaen-19-one] | – |
| 57 | 65 | 14 | 43 | 63 | 77 | 52 | O=c1c2cnccc2c2nccc3c4cc(O)ccc4n1c32 [MW01-E18, 5-hydroxy-1,11,16-triazapentacyclo[10.7.1.0^2,^7.0^8,^20.0^13,^18]icosa-2(7),3,5,8(20),9,11,13(18),14,16-nonaen-19-one] | – |
| 18 | 12 | 9 | 26 | 12 | 84 | -1 | COc1ccc2c(c1)c1ccnc3c4ccnc(OC)c4c(=O)n2c13 [MW01-E14, 5,17-dimethoxy-1,11,16-triazapentacyclo[10.7.1.0^2,^7.0^8,^20.0^13,^18]icosa-2(7),3,5,8(20),9,11,13(18),14,16-nonaen-19-one] | – |
| 20 | 53 | 33 | 5 | 7 | 28 | 7 | COc1ccc2nc3c(cc2c1)c(N)nn3C(=O)c1cccc(N(C)C)c1 [MW05-E2, 1-[3-(dimethylamino)benzoyl]-6-methoxy-1H-pyrazolo[3,4-b]quinolin-3-amine] | – |
| 61 | 56 | 15 | 42 | 35 | 87 | 74 | O=c1c2cc(O)ccc2c2nccc3c4cc(O)ccc4n1c32 [MW01-E10, 5,16-dihydroxy-1,11-diazapentacyclo[10.7.1.0^2,^7.0^8,^20.0^13,^18]icosa-2(7),3,5,8(20),9,11,13(18),14,16-nonaen-19-one] | – |
